Results reported in publication PMC11703153 (bioRxiv, 2025).

target: T1, ChREBP (ChREBPα) (Mus musculus, UniProt Q99MZ3); test: isothermal titration calorimetry, purified refolded GSM domain, […] °C; format: binding; details: not given
T1 sequence (Q99MZ3 43-307): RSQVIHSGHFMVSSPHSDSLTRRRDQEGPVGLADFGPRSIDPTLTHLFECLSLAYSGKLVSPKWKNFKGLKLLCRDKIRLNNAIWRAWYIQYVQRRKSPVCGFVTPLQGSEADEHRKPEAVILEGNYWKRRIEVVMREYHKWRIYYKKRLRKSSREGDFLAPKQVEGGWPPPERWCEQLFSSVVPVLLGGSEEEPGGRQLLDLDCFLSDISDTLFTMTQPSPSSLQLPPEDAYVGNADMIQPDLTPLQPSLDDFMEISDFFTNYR

Row | Kd | SMILES
1 | 453 µM | O=C(CO)COP(=O)(O)O [DHAP, dihydroxyacetone phosphate]

same assay, conditions: read-out: Kd ± SD

Row | SMILES | Kd
2 | O=P(O)(O)OC[C@H]1OC(O)(COP(=O)(O)O)[C@@H](O)[C@@H]1O (stereo partly shown) [F1,6BP, fructose-1,6-bisphosphate] | 250 µM
3 | OC[C@H]1OC(O)[C@H](O)[C@@H](O)[C@@H]1O (stereo partly shown) [Glc, glucose] | 270 µM

The remaining lines, values ahead:

Row | Kd | SMILES
4 | 221 µM | O=CC(O)COP(=O)(O)O (stereo not shown) [GA3P, glyceraldehyde-3-phosphate]
5 | 131 µM | O=C(CO)[C@@H](O)[C@H](O)[C@H](O)COP(=O)(O)O [F6P]
6 | 64.3 µM | O=P(O)(O)OC[C@H]1OC(O)[C@H](O)[C@@H](O)[C@@H]1O (stereo partly shown) [G6P, glucose-6-phosphate]
7 | 17 µM | O=P(O)(O)OCC(O)CO (stereo not shown) [G3P, glycerol-3-phosphate]
